Tested on: fecal metabolome
Assay: Fecal metabolome analysis (GC-MS peak height, PCA, OPLS-DA) in STAM model of NASH
Type: in vivo, C57BL/6J mice

Structure (SMILES): CCCc1nc2c(C)cc(-c3nc4ccccc4n3C)cc2n1Cc1ccc(-c2ccccc2C(=O)O)cc1 [Telmisartan]
- Peak height after normalization, 2-Aminobutyric acid-2TMS (Difference): 17954.52
- Peak height after normalization, 2-Hydroxyisobutyric acid-2TMS (Difference): 133880.36
- Peak height after normalization, 3-Aminoglutaric acid-3TMS (Difference): 8627.53
- Peak height after normalization, 3-Hydroxybutyric acid-2TMS (Difference): −4608.17
- Peak height after normalization, 5-Aminovaleric acid-3TMS (Difference): 26394.02
- Peak height after normalization, Glutamic acid-3TMS (Difference): 382709.41
- Peak height after normalization, Glutamine-3TMS (Difference): 30745.13
- Peak height after normalization, Glycine-3TMS (Difference): 109331.29
- Peak height after normalization, Hypoxanthine-2TMS (Difference): 23680.72
- Peak height after normalization, Lactic acid-2TMS (Difference): −35605.88
- Peak height after normalization, Leucine-2TMS (Difference): 267732.46
- Peak height after normalization, Lysine-4TMS (Difference): 360841.28
- Peak height after normalization, Malic acid-3TMS (Difference): −16354.66
- Peak height after normalization, Norvaline-TMS (Difference): 37744.18
- Peak height after normalization, Phosphoric acid-3TMS (Difference): 15228.48
- Peak height after normalization, Proline-2TMS (Difference): 52750.51
- Peak height after normalization, Succinic acid-2TMS (Difference): 50806.69
- Peak height after normalization, Taurine-3TMS (Difference): 9869.33
- Peak height after normalization, Tyrosine-3TMS (Difference): 116635.49
- Peak height after normalization, Uracil-2TMS (Difference): −3276.22
- Peak height after normalization, Valine-2TMS (Difference): 267808.23
- Peak height after normalization, 2-Aminobutyric acid-2TMS (Post): 43700.57
- Peak height after normalization, 3-Aminoglutaric acid-3TMS (Post): 12436.04
- Peak height after normalization, 3-Hydroxybutyric acid-2TMS (Post): 10891.34
- Peak height after normalization, Alanine-2TMS (Post): 1268525.27
- Peak height after normalization, Glycerol-3TMS (Post): 324467.91
- Peak height after normalization, Glycine-3TMS (Post): 288456.14
- Peak height after normalization, Isoleucine-2TMS (Post): 381173.16
- Peak height after normalization, Lactic acid-2TMS (Post): 36363.66
- Peak height after normalization, Leucine-2TMS (Post): 631954.96
- Peak height after normalization, Lysine-4TMS (Post): 952876.14
- Peak height after normalization, Malic acid-3TMS (Post): 38544.73
- Peak height after normalization, Methionine-2TMS (Post): 168797.44
- Peak height after normalization, Norvaline-TMS (Post): 110365.67
- Peak height after normalization, Phenylalamine-2TMS (Post): 342996.16
- Peak height after normalization, Phosphoric acid-3TMS (Post): 122301.92
- Peak height after normalization, Proline-2TMS (Post): 151136.53
- Peak height after normalization, Taurine-3TMS (Post): 24726.77
- Peak height after normalization, Tryptophan-3TMS (Post): 28678.00
- Peak height after normalization, Uracil-2TMS (Post): 71567.16
- Peak height after normalization, Valine-2TMS (Post): 521841.20
- Peak height after normalization, Xanthine-3TMS (Post): 103194.40
- Peak height after normalization, 3-Aminoglutaric acid-3TMS (Pre): 3808.51
- Peak height after normalization, 3-Hydroxybutyric acid-2TMS (Pre): 15499.52
- Peak height after normalization, 5-Aminovaleric acid-3TMS (Pre): 28517.91
- Peak height after normalization, 5-Oxoproline-2TMS (Pre): 113169.35
- Peak height after normalization, #Sz,899;-3TMS (Pre): 124526.34
- Peak height after normalization, Aspartic acid-3TMS (Pre): 183416.60
- Peak height after normalization, Glycerol-3TMS (Pre): 283873.86
- Peak height after normalization, Hypoxanthine-2TMS (Pre): 33144.25
- Peak height after normalization, Isoleucine-2TMS (Pre): 175687.57
- Peak height after normalization, Lactic acid-2TMS (Pre): 71969.33
- Peak height after normalization, Lysine-4TMS (Pre): 592034.86
- Peak height after normalization, Malic acid-3TMS (Pre): 54899.38
- Peak height after normalization, Methionine-2TMS (Pre): 103825.98
- Peak height after normalization, Norvaline-TMS (Pre): 72621.50
- Peak height after normalization, Phenylalamine-2TMS (Pre): 208441.78
- Peak height after normalization, Phosphoric acid-3TMS (Pre): 107073.44
- Peak height after normalization, Succinic acid-2TMS (Pre): 263097.91
- Peak height after normalization, Taurine-3TMS (Pre): 14857.44
- Peak height after normalization, Tryptophan-3TMS (Pre): 16169.30
- Peak height after normalization, Tyrosine-3TMS (Pre): 309190.46
- Peak height after normalization, Uracil-2TMS (Pre): 74843.38
- Peak height after normalization, Valine-2TMS (Pre): 254032.97
- Peak height after normalization, Xanthine-3TMS (Pre): 101684.60

Reference: patent publication US20240374631A1, “A COMPOSITION FOR IMPROVING GUT MICROBIOTA, BEHAVIOURAL PATTERN, ALPHA-SYNUCLEIN LEVELS, SLEEP PATTERN AND/OR SERUM MELATONIN” (GN Corporation Co Ltd, priority 2021, published 2024)
